What all share (assay): Growth inhibition activity (MIC, agar) against aerobic bacteria
Holding throughout (assay type): cell-based

Test [1] has as its system Corynebacterium minutissimum (NBRC15361T). To be noted: Corynebacterium minutissimum; strain NBRC15361T; Mueller Hinton Agar, 37 degrees C. overnight; read-out: MIC (Minimum Inhibitory Concentration). As for the experimental part: (§1) In the present invention, the growth inhibition activity, which is an indicator of the antimicrobial activity, is evaluated by determining the Minimum Inhibitory Concentration (MIC) with an agar or liquid medium.
(§2) In the test for the growth inhibition activity, the following strains were used as skin-related bacteria: • Staphylococcus epidermidis: Staphylococcus epidermidis (JCM2414T and ATCC 12228) • Staphylococcus aureus: Staphylococcus aureus (NBRC12732 and JCM2151) • Skin indigenous bacteria which introduce a superficial infection: Corynebacterium minutissimum (NBRC15361T) • Armpit odor-causing bacteria: Corynebacterium xerosis (JCM1324)
(§3) The test strains were cultured in the liquid medium which the Bioresource center recommends, and then the test strains were subcultured to a Mueller Hinton Broth (Difco) at 30 degrees C. The grown bacteria were diluted to 10^6 CFU/ml with saline to adjust the bacteria fluids for inoculation.
(§4) Furthermore, in order to examine the growth inhibition activities against the bacteria by the above cooling agents, the concentration of the cooling agents: (3S)-CA20, (3R)-CA20, CA1, CA5, CA15, CA55 or CA MGH was diluted with ethanol to the required level of concentration for the determining the Minimum Inhibitory Concentration to produce the sample liquids.
(§5) Next, 100 μL of each sample liquid was added to 10 mL of a Mueller Hinton Agar (Difco) agar medium solution in a soluble state, and each agar medium solution was poured into a petri dish and solidified to prepare test plates having several concentrations of the sample liquids (several concentrations of the above cooling agents). Subsequently, 5 μL of the above bacteria fluids for inoculation were stamped on the test plates, and then the test plates were cultured at 37 degrees C. overnight.
(§6) In this way, the growth inhibition activities by (3S)-CA20, (3R)-CA20, CA1, CA5, CA15, CA55, CA MGH were examined. The minimum concentration of the cooling agent in which the growth of bacteria could not be confirmed was considered as the MIC (Minimum Inhibitory Concentration).
(§7) The minimum concentration of the cooling agent in which the grown strain could not be confirmed was considered as the MIC (Minimum Inhibitory Concentration).

Test [2] deals with Corynebacterium xerosis (JCM1324). The following applies: Corynebacterium xerosis; strain JCM1324; Mueller Hinton Agar, 37 degrees C. overnight; read-out: MIC (Minimum Inhibitory Concentration). The procedure: as §1, §2, §3, §4, §5, §6, §7
The test system of test [3] is Staphylococcus aureus (JCM2151). To be noted: Staphylococcus aureus; strain JCM2151; Mueller Hinton Agar, 37 degrees C. overnight; read-out: MIC (Minimum Inhibitory Concentration). The procedure: as §1, §2, §3, §4, §5, §6, §7
Test [4] relates to Staphylococcus aureus (NBRC12732). To be noted: Staphylococcus aureus; strain NBRC12732; Mueller Hinton Agar, 37 degrees C. overnight; read-out: MIC (Minimum Inhibitory Concentration). As for the experimental part:
as §1, §2, §3, §4, §5, §6, §7

In test [5] the test system is Staphylococcus epidermidis (JCM2414T). To be noted: Staphylococcus epidermidis, strain JCM2414T; Mueller Hinton Agar, 37 degrees C. overnight; read-out: MIC (Minimum Inhibitory Concentration). As for the experimental part: as §1, §2, §3, §4, §5, §6, §7
The subject of test [6] is Bacillus subtilis (NBRC3134). To be noted: Bacillus subtilis; strain NBRC3134; Mueller Hinton Agar, 37 degrees C. overnight; read-out: MIC (Minimum Inhibitory Concentration). As for the experimental part:
as §1
(§8) Furthermore, the following bacteria were also used as other general aerobic bacteria: • Escherichia coli: Escherichia coli (NBRC3972) • Pseudomonas aeruginosa: Pseudomonas aeruginosa (NBRC13275) • Bacteria in intestines: Proteus vulgaris (NBRC3167) • Pneumobacillus: Klebsiella pneumoniae (NBRC13277) • Bacillus subtilis: Bacillus subtilis (NBRC3134)
as §3, §4, §5, §6, §7

The test system of test [7] is Escherichia coli (NBRC3972). To be noted: Escherichia coli; strain NBRC3972; Mueller Hinton Agar, 37 degrees C. overnight; read-out: MIC (Minimum Inhibitory Concentration). The procedure:
as §1, §8, §3, §4, §5, §6, §7

Test [8] has as its system Klebsiella pneumoniae (NBRC13277). The following applies: Klebsiella pneumoniae; strain NBRC13277; Mueller Hinton Agar, 37 degrees C. overnight; read-out: MIC (Minimum Inhibitory Concentration). The procedure: as §1, §8, §3, §4, §5, §6, §7
The test system of test [9] is Proteus vulgaris (NBRC3167). The following applies: Proteus vulgaris; strain NBRC3167; Mueller Hinton Agar, 37 degrees C. overnight; read-out: MIC (Minimum Inhibitory Concentration). The procedure: as §1, §8, §3, §4, §5, §6, §7
Test [10] concerns Pseudomonas aeruginosa (NBRC13275). The following applies: Pseudomonas aeruginosa; strain NBRC13275; Mueller Hinton Agar, 37 degrees C. overnight; read-out: MIC (Minimum Inhibitory Concentration). The procedure: as §1, §8, §3, §4, §5, §6, §7
The test system of test [11] is Staphylococcus epidermidis (ATCC 12228). To be noted: strain ATCC12228, Mueller Hinton Agar, 37 degrees C. overnight, read-out: MIC (Minimum Inhibitory Concentration). The procedure: as §1, §2, §3, §4, §5, §6, §7

In brackets after ≈: the same amount, converted by molar mass.

For `CC(O)CC(=O)OC1CC(C)CCC1C(C)C` [(3S)-CA20, menthyl 3-hydroxybutanoate], the MIC was determined as 200 µg/mL (≈ 0.825 mM) in [1]; 100 µg/mL (≈ 0.413 mM) in test [2]; 100 µg/mL (≈ 0.413 mM) in test [3]; 200 µg/mL (≈ 0.825 mM) in test [4]; 100 µg/mL (≈ 0.413 mM) in test [5]; 200 µg/mL (≈ 0.825 mM) in [6]. Further, the MIC is over 1600 µg/mL in test [7], 200 µg/mL (≈ 0.825 mM) in test [8], over 1600 µg/mL in [9] and over 1600 µg/mL in [10].
Take `CC1CCC(C(C)C)C(OCC(C)(O)CO)C1` (stereo not drawn) [CA1, 2-methyl-3-(menthoxy)propane-1,2-diol]: the MIC stood at 400 µg/mL (≈ 1.64 mM) in test [1]; 800 µg/mL (≈ 3.27 mM) in test [2]; 400 µg/mL (≈ 1.64 mM) in test [3]; 800 µg/mL (≈ 3.27 mM) in test [4]; 800 µg/mL (≈ 3.27 mM) in test [11]; 400 µg/mL (≈ 1.64 mM) in test [5]. The MIC in [6] was 400 µg/mL (≈ 1.64 mM); in test [7], over 1600 µg/mL; in test [8], 400 µg/mL (≈ 1.64 mM); in test [9], over 1600 µg/mL; in [10], over 1600 µg/mL.
As to `CC1CCC(C(C)C)C(OCCO)C1` (stereo not drawn) [CA5, 2-(menthoxy)ethanol], the MIC worked out at 800 µg/mL (≈ 3.99 mM) in [1]; 800 µg/mL (≈ 3.99 mM) in test [2]; 400 µg/mL (≈ 2 mM) in test [3]; 800 µg/mL (≈ 3.99 mM) in test [4]; 800 µg/mL (≈ 3.99 mM) in [11]; 800 µg/mL (≈ 3.99 mM) in test [5]. Besides, the MIC in test [6] is 800 µg/mL (≈ 3.99 mM); in test [7] it was over 1600 µg/mL; in [8], 400 µg/mL (≈ 2 mM); in [9], 1600 µg/mL (≈ 7.99 mM); in test [10] it was over 1600 µg/mL.
`CC1CCC(C(C)C)C(OCC(O)CO)C1` (stereo not drawn) [CA10, 3-menthoxypropane-1,2-diol, reference compound]: the MIC in test [1] is 800 µg/mL (≈ 3.47 mM); in test [2], 800 µg/mL (≈ 3.47 mM); in [3] it was 800 µg/mL (≈ 3.47 mM); in test [4] it was 1600 µg/mL (≈ 6.95 mM); in [11], 1600 µg/mL (≈ 6.95 mM); in [5] it was 800 µg/mL (≈ 3.47 mM). Also, the MIC in [6] was 800 µg/mL (≈ 3.47 mM); in [7] it was over 1600 µg/mL; in test [8], 800 µg/mL (≈ 3.47 mM); in test [9] it was 1600 µg/mL (≈ 6.95 mM); in [10] it was over 1600 µg/mL.
Regarding `CC1CCC(C(C)C)C(OCCCO)C1` (stereo not drawn) [CA15, 3-menthoxypropan-1-ol], the MIC in [1] was determined as 200 µg/mL (≈ 0.933 mM); in test [2], 400 µg/mL (≈ 1.87 mM); in test [3] it was 200 µg/mL (≈ 0.933 mM); in [4], 400 µg/mL (≈ 1.87 mM); in [11], 400 µg/mL (≈ 1.87 mM); in test [5] it was 400 µg/mL (≈ 1.87 mM). The MIC is 400 µg/mL (≈ 1.87 mM) in test [6]; over 1600 µg/mL in [7]; 200 µg/mL (≈ 0.933 mM) in test [8]; over 1600 µg/mL in [9]; over 1600 µg/mL in [10].
For the molecule `CC1CCC(C(C)(C)O)C(O)C1` (stereo not drawn) [CA38, p-menthane-3,8-diol, reference compound], the MIC in test [1], in test [2], in [3], in [4], in test [11] and in test [5] was over 1600 µg/mL each time. The MIC was 800 µg/mL (≈ 4.64 mM) in test [6]; over 1600 µg/mL in test [7]; over 1600 µg/mL in [8]; over 1600 µg/mL in test [9]; over 1600 µg/mL in [10].
Regarding `CC1CCC(C(C)C)C(OCCOCCO)C1` (stereo not drawn) [CA55, 2-(2-menthoxyethoxy)ethanol], the MIC in test [1], in [2], in test [3], in test [4], in test [11] and in test [5] was 800 µg/mL (≈ 3.27 mM) each time. In addition, the MIC was 800 µg/mL (≈ 3.27 mM) in test [6]; over 1600 µg/mL in test [7]; 800 µg/mL (≈ 3.27 mM) in test [8]; over 1600 µg/mL in test [9]; over 1600 µg/mL in [10].
As for `CC1CCC(C(C)C)C(OC(=O)C=O)C1` (stereo not drawn) [CA MGH, menthyl glyoxylate], the MIC in test [1] came out at 100 µg/mL (≈ 0.471 mM); in test [2] it was 100 µg/mL (≈ 0.471 mM); in test [3], 100 µg/mL (≈ 0.471 mM); in [4], 100 µg/mL (≈ 0.471 mM); in test [11], 50 µg/mL (≈ 0.236 mM); in test [5] it was 50 µg/mL (≈ 0.236 mM). Also, the MIC in test [6] was determined as 50 µg/mL (≈ 0.236 mM); in test [7], 800 µg/mL (≈ 3.77 mM); in test [8], 50 µg/mL (≈ 0.236 mM); in test [9], 100 µg/mL (≈ 0.471 mM); in test [10] it was 800 µg/mL (≈ 3.77 mM).
For `CNC(=O)C(C)(C(C)C)C(C)C` [WS-23, N-methyl-2-isopropyl-2,3-dimethylbutanamide, reference compound], the MIC in test [1], in [2], in test [3], in test [4], in test [5] and in test [6] was over 1600 µg/mL throughout. For the same molecule, the MIC in [7], in test [8], in [9] and in [10] was over 1600 µg/mL throughout.
In the case of `CC1CCC(C(C)C)C(O)C1` (stereo not drawn) [l-menthol, menthol, reference compound], the MIC in test [1], in test [2], in test [3], in test [4], in test [11] and in test [5] was 1600 µg/mL (≈ 10.2 mM) in each case. The MIC in test [6] was 1600 µg/mL (≈ 10.2 mM); in test [7], 1600 µg/mL (≈ 10.2 mM); in [8], 1600 µg/mL (≈ 10.2 mM); in [9], 1600 µg/mL (≈ 10.2 mM); in test [10], over 1600 µg/mL.

(Values after patent US20140163099A1, “ANTIMICROBIAL COMPOSITION” (TAKASAGO INTERNATIONAL CORPORATION, priority 2011, published 2014).)
